Laboratory results taken from patent US20060172993A1 (priority 2002, published 2006).

How the values were obtained:
humans = conditions: cited from earlier work
[1] = tested on: Patients diagnosed with Alzheimer's Disease; assay: Neuropsychiatric Inventory (NPI); assay type: in vivo, human
Description: Subjects in the Placebo group received 21 weeks (5 months) of placebo medication.
Neuropsychiatric behavior was monitored by a test known as The Neuropsychiatric Inventory (NPI) (Cummings, J. L. et al., Neurology, 44: 2308-2314, 1994). The NPI covers 10 domains of behaviors reported in patients with Alzheimer's Disease: delusions, hallucinations, agitation/aggression, dysphoria, anxiety, euphoria, apathy, disinhibition, irritability/lability and aberrant motor behavior. For each domain abnormal behavior can be absent (score 0) or present. If present, the frequency and severity of abnormal behavior is rated based on answers to a set of subquestions regarding behaviors relevant to that domain. Severity was rated 1 to 3 as mild, moderate or marked. Frequency was rated 1 to 4 as occasionally, often, frequently and very frequently. The product of frequency and severity (maximum score=12) was calculated for each domain. A total of NPI was calculated as the sum of the frequency and severity products (maximum score=120). The NPI was performed at visits 2, 3, 4 and 5 (baseline, week 4, week 13, and month 5 or upon early discontinuation of trial medication).

COc1ccc2c3c1O[C@H]1C[C@@H](O)C=C[C@@]31CCN(C)C2 [GAL, galantamine]
Passing the blood-brain barrier (humans; humans): capable of passing the blood-brain barrier in humans | Side effects (humans; therapeutically effective dosages): no severe side effects | Change in Total NPI score from baseline at Month 5, Mean ([1]; 8 mg/day, LOCF): 2.3 | Change in Total NPI score from baseline at Month 5, Mean ([1]; 8 mg/day, observed case): 2.3 | Change in Total NPI score from baseline at Month 5, Mean ([1]; 16 mg/day, LOCF): −0.1 | Change in Total NPI score from baseline at Month 5, Mean ([1]; 16 mg/day, observed case): −0.1 | Change in Total NPI score from baseline at Month 5, Mean ([1]; 24 mg/day, LOCF): −0.0 | Change in Total NPI score from baseline at Month 5, Mean ([1]; 24 mg/day, observed case): −0.1
